What was measured:
Full length SHP2 enzyme = molecular target: T1, Full length SHP2 enzyme (Homo sapiens, UniProt Q06124); assay: SHP2 phosphatase assay; assay type: biochemical; settings: 1 μM IRS-1 peptide, DiFMUP substrate
T1 construct: Full length SHP2 enzyme (diluted to 0.1 nM in reaction buffer)
T1 sequence (Q06124 1-593): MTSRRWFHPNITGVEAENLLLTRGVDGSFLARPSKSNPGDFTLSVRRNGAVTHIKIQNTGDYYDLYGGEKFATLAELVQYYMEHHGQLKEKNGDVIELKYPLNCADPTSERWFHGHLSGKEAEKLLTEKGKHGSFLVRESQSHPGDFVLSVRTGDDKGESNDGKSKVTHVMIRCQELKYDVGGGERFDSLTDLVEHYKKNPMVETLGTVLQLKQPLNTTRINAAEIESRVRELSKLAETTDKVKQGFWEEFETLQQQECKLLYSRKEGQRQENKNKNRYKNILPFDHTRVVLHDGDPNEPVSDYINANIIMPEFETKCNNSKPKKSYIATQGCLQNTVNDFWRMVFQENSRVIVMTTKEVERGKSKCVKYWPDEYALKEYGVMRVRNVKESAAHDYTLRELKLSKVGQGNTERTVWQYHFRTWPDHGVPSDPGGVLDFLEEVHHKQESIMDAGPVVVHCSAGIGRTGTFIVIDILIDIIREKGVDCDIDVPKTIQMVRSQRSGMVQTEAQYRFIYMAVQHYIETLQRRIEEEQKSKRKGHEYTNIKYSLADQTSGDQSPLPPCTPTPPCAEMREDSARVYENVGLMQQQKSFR
Description: IC50 values were determined at room temperature in 384-well black polystyrene plate, using a final reaction volume of 15 μL and the following assay buffer conditions: 60 mM Hepes (pH=7.2), 75 mM NaCl, 75 mM KCl, and 1 mM EDTA, 0.05% P-20, 5 mM dithiothreitol (DTT). Full length SHP2 enzyme (diluted to 0.1 nM in reaction buffer) were co-incubated with 1 μM IRS-1 peptide and 0.01 nM to 10 μM compounds of the disclosure for 60 min. The surrogate substrate DiFMUP (5 μL, 100 μM) was added, and incubated at rt for 60 min. The reaction was then quenched by the addition of 5 μL of a 40 μM solution of bpV(Phen). The fluorescence signal was monitored using a microplate reader (Envision, Perkin-Elmer) using excitation and emission wavelengths of 360 nm and 450 nm, respectively. The inhibitor dose-response curves were analyzed using normalized IC50 regression curve fitting with control-based normalization.

KYSE-520 cell line = assay: Cell proliferation assay (CellTiter Glo), KYSE-520; assay type: cell-based; settings: Homo sapiens, 3-5 days
Description: Firstly, the cells were seeded in 384-well cell culture plate and incubate overnight. The test compounds were added to the cell plate and incubated for 3-5 days. The cell plate was then detected using CellTiter Glo reagents.

KYSE-520 cells = assay: Esophageal KYSE-520 xenograft model; assay type: in vivo, BALB/c nude mice; settings: oral 30 mg/kg per day, once a day for 4 weeks, mice
Description: (§1) KYSE-520 cells were expanded in culture, harvested and injected subcutaneously into 6-8 weeks old female BALB/c nude mice (5×10^6 cell/each mouse, supplemented with Matrigel (1:1) for tumor development, n=9 per group). Subsequent administration of a compound by oral gavage started when the mean tumor size reached approximately 150-200 mm^3. During the treatment (once a day for 4 weeks), the tumor volumes were measured using a caliper. Statistical analysis of difference in tumor volume among the groups were evaluated using a one-way ANOVA. Vehicle alone was the negative control.

Mai-Pa-ca-2 cells = assay: Pancreatic cancer Mia-Pa-Ca-2 xenograft studies; assay type: in vivo, BALB/c nude mice
Description: as §1, with “Mai-Pa-ca-2” for “KYSE-520”, “21 days),” for “4 weeks),”

NCI-H358 cells = assay: Combination treatment of a SHP2 inhibitor with other therapeutic agents, NSCLC with KRAS mutant xenograft; assay type: in vivo, BALB/c nude mice; settings: 10 mg/kg per day combined with CDK4/6 inhibitor SYB-020097 (30 mg/kg per day), oral once daily for 28 days, mice
Description: as §1, with “NCI-H358” for “KYSE-520”, “compound or combination of compounds” for “compound”

SMILES	IC50 (Full length SHP2 enzyme) [nM]	IC50 (KYSE-520 cell line) [nM]	further results
N[C@@H]1COCC12CCN(c1ncc(Sc3cccc(Cl)c3Cl)[nH]c1=O)CC2 [Example 73, (S)-3-(4-amino-2-oxa-8-azaspiro[4.5]decan-8-yl)-6-((2,3-dichlorophenyl)thio)pyrazin-2 (1H)-one]	≤ 50	< 5000	
NC1COCC12CCN(c1ncc(Sc3cccc(Cl)c3Cl)[nH]c1=O)CC2 (stereo not shown) [Example 10, 3-(4-amino-2-oxa-8-azaspiro[4.5]decan-8-yl)-6-((2,3-dichlorophenyl)thio)pyrazin-2 (1H)-one]		< 5000	
C[C@@H]1OCC2(CCN(c3ncc(Sc4cccc(F)c4Cl)[nH]c3=O)CC2)[C@@H]1N [Example 109, 3-((3S,4S)-4-amino-3-methyl-2-oxa-8-azaspiro[4.5]decan-8-yl)-6-((2-chloro-3-fluorophenyl)thio)pyrazin-2(1H)-one]	≤ 50	< 5000	
CC1(CN)CCN(c2ncc(Sc3cccc(NC(=O)c4c(O)nc5ccccn5c4=O)c3Cl)[nH]c2=O)CC1 [Example 29, N-(3-((5-(4-(aminomethyl)-4-methylpiperidin-1-yl)-6-oxo-1,6-dihydropyrazin-2-yl)thio)-2-chlorophenyl)-2-hydroxy-4-oxo-4H-pyrido[1,2-a]pyrimidine-3-carboxamide]	≤ 50	< 5000	
C[C@@H]1OCC2(CCN(c3ncc(Sc4cccc(F)c4F)[nH]c3=O)CC2)[C@@H]1N [Example 82, 3-((3S,4S)-4-amino-3-methyl-2-oxa-8-azaspiro[4.5]decan-8-yl)-6-((2,3-difluorophenyl)thio)pyrazin-2(1H)-one]	≤ 50	< 5000	
CC1(CN)CCN(c2ncc(Sc3cccc(NC(=O)c4c(O)nc5sccn5c4=O)c3Cl)[nH]c2=O)CC1 [Example 31, N-(3-((5-(4-(aminomethyl)-4-methylpiperidin-1-yl)-6-oxo-1,6-dihydropyrazin-2-yl)thio)-2-chlorophenyl)-7-hydroxy-5-oxo-5H-thiazolo[3,2-a]pyrimidine-6-carboxamide]	≤ 50	< 5000	
C[C@@H]1OCC2(CCN(c3ncc(Sc4ccnc(Cl)c4Cl)[nH]c3=O)CC2)[C@@H]1N [Example 81, 3-((3S,4S)-4-amino-3-methyl-2-oxa-8-azaspiro[4.5]decan-8-yl)-6-((2,3-dichloropyridin-4-yl)thio)pyrazin-2(1H)-one]	≤ 50	< 1000	
C[C@@H]1OCC2(CCN(c3ncc(Sc4cccc(Cl)c4Cl)[nH]c3=O)CC2)[C@@H]1N			anti-tumor activity compared with reference compound (KYSE-520 cells): superior anti-tumor activities than reference compound RMC-4550; tumor growth inhibition (KYSE-520 cells): more than 90%; reduction of tumor growth, combination vs each compound alone (Mai-Pa-ca-2 cells; 30 mg/kg per day co-administered with CDK4/6 inhibitor SYB-020097 (50 mg/kg per day)): significantly higher reduction of tumor growth; reduction of tumor growth, combination vs each compound alone (Mai-Pa-ca-2 cells; 30 mg/kg per day co-administered with MEK inhibitor SYB-020099 (1 mg/kg per day)): significantly higher reduction of tumor growth; improvement of combination over monotherapy (NCI-H358 cells): more than 50%
COc1ccc2c(c1)CC1(CCN(c3ncc(Sc4cccc(Cl)c4Cl)[nH]c3=O)CC1)[C@@H]2N [Example 131, (S)-3-(1-amino-5-methoxy-1,3-dihydrospiro[indene-2,4′-piperidin]-1′-yl)-6-((2,3-dichlorophenyl)thio)pyrazin-2 (1H)-one]	≤ 50		
N[C@@H]1c2ccccc2CC12CCN(c1ncc(Sc3cccc(Cl)c3Cl)[nH]c1=O)CC2 [Example 108]	≤ 50		
C[C@@H]1OCC2(CCN(c3ncc(Sc4ccnc(F)c4Cl)[nH]c3=O)CC2)[C@@H]1N [Example 83, 3-((3S,4S)-4-amino-3-methyl-2-oxa-8-azaspiro[4.5]decan-8-yl)-6-((3-chloro-2-fluoropyridin-4-yl)thio)pyrazin-2(1H)-one]	≤ 50	< 1000	
C[C@@H]1OCC2(CCN(c3ncc(Sc4ccnc(F)c4F)[nH]c3=O)CC2)[C@@H]1N [Example 84]	≤ 50	< 1000	
C[C@@H]1OCC2(CCN(c3ncc(Sc4cc[nH]c(=O)c4Cl)[nH]c3=O)CC2)[C@@H]1N [Example 107, 3-((3S,4S)-4-amino-3-methyl-2-oxa-8-azaspiro[4.5]decan-8-yl)-6-((3-chloro-2-oxo-1,2-dihydro-pyridin-4-yl)thio)pyrazin-2(1H)-one]	≤ 50		
